Measured values from patent US12459951B2, “Compounds that interact with RAS superfamily proteins for treatment of cancers, inflammatory diseases, rasopathies, and fibrotic disease” (SHY Therapeutics, LLC, priority 2022, dated 2025).

Key:
[1] = test system: JNK phosphorylation; assay: JNK Activation Assay (western blot), Panc-1; format: cell-based, human; conditions: at 10 μM, Panc-1 pancreatic cancer cell line; starred symbols = activation
Description: Protocol for JNK Activation Assay
This assay is referred to as the “JNK Activation Assay” throughout this application.
Cell lines: Human tumor-derived pancreatic cancer cell line Panc-1 (expressing KRas […] mutant) was purchased from American Type Culture Collection and grown in complete DMEM-High Glucose medium, supplemented with penicillin (100 U/mL), streptomycin (100 μg/mL), and 10% heat-inactivated FBS at 37° C. in a humidified incubator with 5% CO2.
Method 1: Cells were plated at 350000 cells/well density in a 12-well plate, allowed 3 hours to adhere to the plate, then starved in the appropriate medium in the presence of 0.5% FBS overnight. The small molecules to be tested were added to the cells in the final concentration of 10 μM in the presence of 0.3% DMSO for 6 hours incubation at 37° C. For IC50 value determination, serial dilutions of compounds were added to cells under the same conditions. Next, cells were stimulated with 1.5 ng/ml EGF for 15 minutes then cells were lysed with lysis buffer containing 1% Triton X-100, EDTA, and Halt™ Protease & Phosphatase Inhibitor Cocktail (Thermo Scientific). Protein concentration was assessed by BCA protein assay (Thermo Scientific). Phosphorylation level of JNK was determined by western blot.
Method 2: Cells were plated at 350000 cells/well density in a 12-well plate in the presence of 10% FBS. The next day small molecules to be tested were added to the cells in the final concentration of 10 μM in the presence of 0.3% DMSO for 6 hours incubation at 37° C. For IC50 value determination, serial dilutions of compounds were added to cells under the same conditions. Next, cells were lysed with lysis buffer containing 1% Triton X-100, EDTA, and Halt™ Protease & Phosphatase Inhibitor Cocktail (Thermo Scientific). Protein concentration was assessed by BCA protein assay (Thermo Scientific). Phosphorylation level of JNK was determined by western blot.
Western blot protocol: Equal amounts of protein (15-50 μg) were separated by SDS-PAGE and transferred to nitrocellulose membranes (Invitrogen by Thermo Fisher Scientific). The membrane was stained with Ponceau S Stain (Boston BioProducts) to verify uniform protein loading. Membranes were blocked with 10% milk and phosphorylation levels of JNK were assessed by incubating overnight at 4° C. with the antibody Phospho-SAPK/JNK (Thr183/Tyr185), from Cell Signaling Technology. Then the membranes were incubated with HRP-conjugated secondary antibody (Jackson Immunoresearch, West Grove, PA). Bands were incubated in Amersham ECL Prime Western Blotting Detection Reagent (GE Healthcare) and visualized using the ChemiDoc MP imaging system (Bio-Rad).

[2] = molecular target: T1, cdc42 (Homo sapiens, UniProt P60953); assay: Cdc42 GTP Binding Domain Inhibition Assay; conditions: read-out: Cdc42: % inh.
T1 construct: made in house
T1 sequence (P60953 whole entry, the tested form may be a part): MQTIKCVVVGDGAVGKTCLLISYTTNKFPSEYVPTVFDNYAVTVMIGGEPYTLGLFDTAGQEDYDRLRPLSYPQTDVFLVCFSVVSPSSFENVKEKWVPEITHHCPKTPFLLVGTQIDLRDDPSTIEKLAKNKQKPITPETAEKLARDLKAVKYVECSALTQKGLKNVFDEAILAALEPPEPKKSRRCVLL
Description: (§1) Protocol for Cdc42 and Rheb GTP Binding Domain Inhibition Assay
(§2) The following method was developed as specific assay for cdc42 and Rheb proteins.
(§3) • 25 mM Tris-HCl, pH 7.4 • 27 mM KCl • 137 mM NaCl • 1 mM MgCl2 • 1 mM DTT Buffer-II: • 50 mM Tris-HCl, pH 7.0 • 1 mM MgCl2 • 1 mM DTT
(§4) The small GTPases proteins cdc42 and Rheb were expressed as His-tagged proteins. For the assay, the cdc42 and Rheb purified small GTPases proteins were diluted in Buffer-I or Buffer-II to a final concentration of 10-30 μg/mL. 200 μL of each diluted protein was added to a nickel-coated 96-well plate and incubated overnight at […]. Then the protein solution was discarded and 200 μL of Buffer-I or Buffer-II was added to each well in the presence of 1% DMSO. Compounds to be tested were added to the protein-coated wells at final concentration of 20 μM, and incubated for 3 hours at room temperature with and without 10-30 μg/mL of Sos added to the final hour of the incubation. When performing IC50 measurements a serial dilution of all tested concentrations was added. Then Cy3-GTP or Cy5-GTP was added to each well to a final concentration of 100 nM. The labeled GTP was incubated for 45 minutes at room temperature. Following GTP incubation, wells were washed 3× in Buffer-I or Buffer-II and 200 μL of Buffer-I or Buffer-II was added to each well. Following washes, the amount of bound labeled-GTP was measured using a SpectraMax M3 (Molecular Devices).

[3] = molecular target: T2, Rheb (Homo sapiens, UniProt Q15382); assay: Rheb GTP Binding Domain Inhibition Assay; conditions: read-out: Rheb: % inh.
T2 construct: made in house
T2 sequence (Q15382 whole entry, the tested form may be a part): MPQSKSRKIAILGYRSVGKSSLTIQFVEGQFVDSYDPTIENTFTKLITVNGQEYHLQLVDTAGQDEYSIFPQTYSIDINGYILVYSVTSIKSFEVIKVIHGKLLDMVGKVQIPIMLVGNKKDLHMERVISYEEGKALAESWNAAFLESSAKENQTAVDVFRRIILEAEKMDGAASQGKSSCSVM
Description: as §1, §2, §3, §4

inhibition at 20 µM [2]	inhibition at 20 µM [3]	SMILES	% inh of JNK in Panc-1 [1]
		CO[C@H]1CC[C@@H](Nc2nc(-c3ccccn3)nn3cc(-c4ccn(C(C)C)n4)c(-c4ccccc4)c23)C1 (racemic) [Compound 24, rac 6-(1-Isopropyl-1H-pyrazol-3-yl)-N-((1R,3S)-3-methoxycyclopentyl)-5-phenyl-2-(pyridin-2-yl)pyrrolo[2,1-f][1,2,4]triazin-4-amine]	H* (H* ≥ 100% activation)
		COCC1CCN(c2nc(-c3ccccn3)nn3cc(-c4ccn(C(C)C)n4)c(-c4ccccc4)c23)C1 (racemic) [Compound 25, rac 6-(1-Isopropyl-1H-pyrazol-3-yl)-4-(3-(methoxymethyl)pyrrolidin-1-yl)-5-phenyl-2-(pyridin-2-yl)pyrrolo[2,1-f][1,2,4]triazine]	H* (H* ≥ 100% activation)
		COC[C@@H]1CC[C@@H]1CNc1nc(-c2ccccn2)nn2cc(-c3ccn(C(C)C)n3)c(-c3ccccc3)c12 (racemic) [Compound 26, rac 6-(1-Isopropyl-1H-pyrazol-3-yl)-N-(((1S,2R)-2-(methoxymethyl)cyclobutyl)methyl)-5-phenyl-2-(pyridin-2-yl)pyrrolo[2,1-f][1,2,4]triazin-4-amine]	H* (H* ≥ 100% activation)
		COC1CCCN(c2nc(-c3ccccn3)nn3cc(-c4ccn(C(C)C)n4)c(-c4ccccc4)c23)C1 (racemic) [Compound 27, rac 6-(1-Isopropyl-1H-pyrazol-3-yl)-4-(3-methoxypiperidin-1-yl)-5-phenyl-2-(pyridin-2-yl)pyrrolo[2,1-f][1,2,4]triazine]	H* (H* ≥ 100% activation)
		COc1cccc(-c2cn3nc(-c4nccn4C)nc(N[C@@H]4CC[C@H](OC)C4)c3c2-c2ccccc2)c1Cl (racemic) [Compound 33, rac 6-(2-Chloro-3-methoxyphenyl)-N-((1R,3S)-3-methoxycyclopentyl)-2-(1-methyl-1H-imidazol-2-yl)-5-phenylpyrrolo[2,1-f][1,2,4]triazin-4-amine]	G (G = 75-99% inhibition)
		CO[C@H]1CC[C@@H](Nc2nc(-c3nccn3C)nn3cc(-c4ccn(C(C)C)n4)c(C(C)C)c23)C1 (racemic) [Compound 36, rac 5-Isopropyl-6-(1-isopropyl-1H-pyrazol-3-yl)-N-((1R,3S)-3-methoxycyclopentyl)-2-(1-methyl-1H-imidazol-2-yl)pyrrolo[2,1-f][1,2,4]triazin-4-amine]	H* (H* ≥ 100% activation)
1 to 25%	26 to 49%	COc1cccc(-c2cn3nc(-c4nccn4C)nc(N[C@@H]4CC[C@@H](OC)C4)c3c2-c2ccccc2)c1F (racemic) [Compound 43, rac 6-(2-Fluoro-3-methoxyphenyl)-N-((1R,3R)-3-methoxycyclopentyl)-2-(1-methyl-1H-imidazol-2-yl)-5-phenylpyrrolo[2,1-f][1,2,4]triazin-4-amine]	H* (H* ≥ 100% activation)
50 to 75%	50 to 75%	COc1cccc(-c2cn3nc(-c4nccn4C)nc(N[C@@H]4CC[C@@H](OC)C4)c3c2-c2ccccn2)c1F (racemic) [Compound 46, rac 6-(2-Fluoro-3-methoxyphenyl)-N-((1R,3R)-3-methoxycyclopentyl)-2-(1-methyl-1H-imidazol-2-yl)-5-(pyridin-2-yl)pyrrolo[2,1-f][1,2,4]triazin-4-amine]	H* (H* ≥ 100% activation)
		COc1cccc(Nc2nc(-c3nccn3C)nn3cc(-c4ccn(C(C)C)n4)c(-c4ccccc4)c23)n1 [Compound 23, 6-(1-Isopropyl-1H-pyrazol-3-yl)-N-(6-methoxypyridin-2-yl)-2-(1-methyl-1H-imidazol-2-yl)-5-phenylpyrrolo[2,1-f][1,2,4]triazin-4-amine]	H* (H* ≥ 100% activation)
		COc1cccc(-c2cn3nc(-c4nccn4C)nc(O)c3c2-c2ccccc2)c1Cl [Compound 28, 6-(2-Chloro-3-methoxyphenyl)-2-(1-methyl-1H-imidazol-2-yl)-5-phenylpyrrolo[2,1-f][1,2,4]triazin-4-ol]	H* (H* ≥ 100% activation)
		COCCNc1nc(-c2nccn2C)nn2cc(-c3cccc(OC)c3Cl)c(-c3ccccc3)c12 [Compound 29, 6-(2-Chloro-3-methoxyphenyl)-N-(2-methoxyethyl)-2-(1-methyl-1H-imidazol-2-yl)-5-phenylpyrrolo[2,1-f][1,2,4]triazin-4-amine]	H (H = 100% inhibition)
		COCCCNc1nc(-c2nccn2C)nn2cc(-c3cccc(OC)c3Cl)c(-c3ccccc3)c12 [Compound 30, 6-(2-Chloro-3-methoxyphenyl)-N-(3-methoxypropyl)-2-(1-methyl-1H-imidazol-2-yl)-5-phenylpyrrolo[2,1-f][1,2,4]triazin-4-amine]	F (F = 31-74% inhibition)
		COc1cccc(-c2cn3nc(-c4nccn4C)nc(N[C@H]4C[C@@H](OC)C4)c3c2-c2ccccc2)c1Cl [Compound 31, 6-(2-Chloro-3-methoxyphenyl)-N-((1s,3s)-3-methoxycyclobutyl)-2-(1-methyl-1H-imidazol-2-yl)-5-phenylpyrrolo[2,1-f][1,2,4]triazin-4-amine]	H* (H* ≥ 100% activation)
		COCCNc1nc(-c2nccn2C)nn2cc(-c3ccn(C(C)C)n3)c(C(C)C)c12 [Compound 35, 5-Isopropyl-6-(1-isopropyl-1H-pyrazol-3-yl)-N-(2-methoxyethyl)-2-(1-methyl-1H-imidazol-2-yl)pyrrolo[2,1-f][1,2,4]triazin-4-amine]	H* (H* ≥ 100% activation)
50 to 75%	50 to 75%	COc1cc(Nc2nc(-c3nccn3C)nn3cc(-c4cccnc4)c(C)c23)ncn1 [Compound 48, N-(6-Methoxypyrimidin-4-yl)-5-methyl-2-(1-methyl-1H-imidazol-2-yl)-6-(pyridin-3-yl)pyrrolo[2,1-f][1,2,4]triazin-4-amine]	
1 to 25%	26 to 49%	COc1cc(Nc2nc(-c3nccn3C)nn3cc(-c4ccncc4)c(C)c23)ncn1 [Compound 49, N-(6-Methoxypyrimidin-4-yl)-5-methyl-2-(1-methyl-1H-imidazol-2-yl)-6-(pyridin-4-yl)pyrrolo[2,1-f][1,2,4]triazin-4-amine]	
76 to 100%	76 to 100%	Cc1c(-c2ccn(C(C)C)n2)cn2nc(-c3nccn3C)nc(Nc3cc(C4CC4)n[nH]3)c12 [Compound 68, N-(3-Cyclopropyl-1H-pyrazol-5-yl)-6-(1-isopropyl-1H-pyrazol-3-yl)-5-methyl-2-(1-methyl-1H-imidazol-2-yl)pyrrolo[2,1-f][1,2,4]triazin-4-amine]	
50 to 75%	50 to 75%	COc1cncnc1Nc1nc(-c2nccn2C)nn2cc(-c3ccn(C(C)C)n3)c(C)c12 [Compound 73, 6-(1-Isopropyl-1H-pyrazol-3-yl)-N-(5-methoxypyrimidin-4-yl)-5-methyl-2-(1-methyl-1H-imidazol-2-yl)pyrrolo[2,1-f][1,2,4]triazin-4-amine]	
0%	0%	COc1ccc(Nc2nc(-c3nccn3C)nn3cc(-c4ccn(C(C)C)n4)c(C)c23)nn1 [Compound 74, 6-(1-Isopropyl-1H-pyrazol-3-yl)-N-(6-methoxypyridazin-3-yl)-5-methyl-2-(1-methyl-1H-imidazol-2-yl)pyrrolo[2,1-f][1,2,4]triazin-4-amine]	
